Paper PMC8253220, “Molecular design, synthesis and in vitro biological evaluation of thienopyrimidine–hydroxamic acids as chimeric kinase HDAC inhibitors: a challenging approach to combat cancer” (Journal of Enzyme Inhibition and Medicinal Chemistry, 2021)
Values joined by “and” are separate entries in the source; they are usually repeats but may differ in a detail not shown here. Equal values may be shown once.

Assays:
[1] = test system: NCI-H23; assay: NCI one-dose screen; type: cell-based, human; settings: NSCLC NCI-H23, 10 µM single dose
Outline: (§1)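 Compounds were tested at a single dose of 10 μM across the full NCI-60 cell line panel. Growth was expressed as percent growth relative to untreated control cells, reported as percent inhibition.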

[2] = test system: SK-MEL-28; assay: NCI one-dose screen; type: cell-based, human; settings: Melanoma SK-MEL-28, 10 µM single dose
Outline: (§2)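 At 10 μM, a single concentration, compounds were evaluated for antiproliferative effect in the NCI 60-line screen, with growth expressed relative to untreated control cells.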

[3] = test system: SNB-75; assay: NCI one-dose screen; type: cell-based, human; settings: CNS SNB-75, 10 µM single dose
Outline: as §1

[4] = test system: MDA-MB-435; assay: NCI one-dose screen; type: cell-based, human; settings: Melanoma MDA-MB-435, 10 µM single dose
Outline: (§3)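 One concentration (10 μM) applied to each line of the full NCI-60 panel; percent growth compared against untreated cells.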

[5] = test system: NCI/ADR-RES; assay: NCI one-dose screen; type: cell-based, human; settings: Ovarian NCI/ADR-RES, 10 µM single dose
Outline: as §3

[6] = test system: U251; assay: NCI one-dose screen; type: cell-based, human; settings: CNS U251, 10 µM single dose
Outline: as §1

[7] = test system: PC-3; assay: NCI one-dose screen; type: cell-based, human; settings: Prostate PC-3, 10 µM single dose
Outline: as §2

[8] = test system: K-562; assay: NCI one-dose screen; type: cell-based, human; settings: Leukemia K-562, 10 µM single dose
Outline: as §3

[9] = test system: UO-31; assay: NCI one-dose screen; type: cell-based, human; settings: Renal UO-31, 10 µM single dose
Outline: as §1

[10] = test system: OVCAR-8; assay: NCI one-dose screen; type: cell-based, human; settings: Ovarian OVCAR-8, 10 µM single dose
Outline: as §3

[11] = test system: CCRF-CEM; assay: NCI one-dose screen; type: cell-based, human; settings: Leukemia CCRF-CEM, 10 µM single dose
Outline: as §3

[12] = test system: BT-549; assay: NCI one-dose screen; type: cell-based, human; settings: Breast BT-549, 10 µM single dose
Outline: as §3

[13] = test system: HT29; assay: NCI one-dose screen; type: cell-based, human; settings: Colon HT29, 10 µM single dose
Outline: as §3

[14] = test system: NCI-H322M; assay: NCI one-dose screen; type: cell-based, human; settings: NSCLC NCI-H322M, 10 µM single dose
Outline: as §3

[15] = test system: NCI-H460; assay: NCI one-dose screen; type: cell-based, human; settings: NSCLC NCI-H460, 10 µM single dose
Outline: as §3

[16] = test system: OVCAR-4; assay: NCI one-dose screen; type: cell-based, human; settings: Ovarian OVCAR-4, 10 µM single dose
Outline: as §3

[17] = test system: SK-MEL-5; assay: NCI one-dose screen; type: cell-based, human; settings: Melanoma SK-MEL-5, 10 µM single dose
Outline: as §3

[18] = test system: HL-60(TB); assay: NCI one-dose screen; type: cell-based, human; settings: Leukemia HL-60(TB), 10 µM single dose
Outline: as §2

[19] = test system: HCT-15; assay: NCI one-dose screen; type: cell-based, human; settings: Colon HCT-15, 10 µM single dose
Outline: as §3

[20] = test system: MDA-MB-468; assay: NCI one-dose screen; type: cell-based, human; settings: Breast MDA-MB-468, 10 µM single dose
Outline: as §1

[21] = test system: SN12C; assay: NCI one-dose screen; type: cell-based, human; settings: Renal SN12C, 10 µM single dose
Outline: as §3

[22] = test system: OVCAR-5; assay: NCI one-dose screen; type: cell-based, human; settings: Ovarian OVCAR-5, 10 µM single dose
Outline: as §3

[23] = biological target: EGFR (Homo sapiens, UniProt P00533); assay: In vitro EGFR tyrosine kinase inhibitory assay (Z'-LYTE, SelectScreen); type: biochemical; settings: 10 µM single dose
Outline: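 Z'-LYTE fluorescence coupled-enzyme format, read-out based on differential protease cleavage of phosphorylated vs non-phosphorylated peptide. Compounds screened at 10 µM single dose for % inhibition, then selected ones tested at 0.1 nM–10 µM for IC50 by curve fitting.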

[24] = test system: full NCI 60 cell panel; assay: NCI one-dose screen, whole panel statistics; type: cell-based, human; settings: 1.00E-5 Molar
Outline: as §2

EGFR, sequence (P00533 25-1210): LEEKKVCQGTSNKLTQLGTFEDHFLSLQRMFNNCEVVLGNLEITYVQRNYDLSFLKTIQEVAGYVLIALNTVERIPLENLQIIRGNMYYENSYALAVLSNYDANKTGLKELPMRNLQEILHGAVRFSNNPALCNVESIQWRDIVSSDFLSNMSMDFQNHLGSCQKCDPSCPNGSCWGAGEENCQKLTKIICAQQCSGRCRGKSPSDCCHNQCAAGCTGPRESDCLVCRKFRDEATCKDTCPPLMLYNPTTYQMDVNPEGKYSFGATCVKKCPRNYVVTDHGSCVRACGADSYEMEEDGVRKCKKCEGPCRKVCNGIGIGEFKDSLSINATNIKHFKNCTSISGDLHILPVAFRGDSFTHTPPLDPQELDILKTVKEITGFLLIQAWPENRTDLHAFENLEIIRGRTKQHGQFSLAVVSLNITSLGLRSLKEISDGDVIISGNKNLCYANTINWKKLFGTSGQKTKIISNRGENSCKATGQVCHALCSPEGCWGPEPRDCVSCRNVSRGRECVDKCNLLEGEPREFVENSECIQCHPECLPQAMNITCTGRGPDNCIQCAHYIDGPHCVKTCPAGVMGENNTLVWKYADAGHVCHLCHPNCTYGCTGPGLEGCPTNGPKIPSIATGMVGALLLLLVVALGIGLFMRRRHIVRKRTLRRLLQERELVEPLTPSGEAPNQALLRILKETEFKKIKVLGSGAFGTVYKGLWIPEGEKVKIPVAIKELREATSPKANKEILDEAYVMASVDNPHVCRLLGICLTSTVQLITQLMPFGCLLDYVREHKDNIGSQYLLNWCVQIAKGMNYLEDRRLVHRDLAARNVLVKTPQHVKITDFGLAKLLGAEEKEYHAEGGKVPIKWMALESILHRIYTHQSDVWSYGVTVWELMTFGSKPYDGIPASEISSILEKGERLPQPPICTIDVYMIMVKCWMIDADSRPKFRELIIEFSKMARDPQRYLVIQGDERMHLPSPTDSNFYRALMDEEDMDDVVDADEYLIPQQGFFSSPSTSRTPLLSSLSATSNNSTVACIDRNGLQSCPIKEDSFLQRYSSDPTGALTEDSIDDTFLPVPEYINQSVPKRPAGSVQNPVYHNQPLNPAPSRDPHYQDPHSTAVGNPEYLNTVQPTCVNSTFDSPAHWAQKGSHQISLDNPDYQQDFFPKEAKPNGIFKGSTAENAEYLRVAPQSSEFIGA

With `Cc1c(C(=O)NCCC(=O)NO)sc2ncnc(Nc3ccc(NC(=O)Nc4cccc(C(F)(F)F)c4)cc3)c12` [Compound 11c, 1–(4-(6-((3-(hydroxyamino)-3-oxopropyl)carbamoyl)-5-methylthieno[2,3-d]pyrimidin-4-ylamino)phenyl)-3–(3-(trifluoromethyl)phenyl)urea] the melting point was 281 °C, the “Growth Percent” value [1] was 100.0% and 100.01% and the “Growth Percent” value [2] was 109.7% and 109.72%. The “Growth Percent” value [3] was 78.8%, the “Growth Percent” value [4] was 103.1% and 103.18% and the “Growth Percent” value [5] was 103.1% and 103.18%. For the same compound, the “Growth Percent” value [6] was 80.2% and 80.22%, the “Growth Percent” value [7] was 100.2% and 100.24% and the “Growth Percent” value [8] was 103.6% and 103.67%. The “Growth Percent” value [9] was 87.0% and 87.09%, the “Growth Percent” value [10] was 102.2% and 102.23% and the “Growth Percent” value [11] was 98.8% and 98.82%. The “Growth Percent” value [12] was 137.1% and 137.18%, the “Growth Percent” value [13] was 109.8% and 109.85% and the “Growth Percent” value [14] was 103.7% and 103.74%. The “Growth Percent” value [15] was 99.4% and 99.41%, the “Growth Percent” value [16] was 105.0% and 105.02% and the “Growth Percent” value [17] was 97.1% and 97.12%. The “Growth Percent” value [18] was 105.0% and 105.04%, the “Growth Percent” value [19] was 101.2% and 101.22% and the “Growth Percent” value [20] was 97.1% and 97.16%. For the same compound, the “Growth Percent” value [21] was 100.0% and 100.06%, the “Growth Percent” value [22] was 104.4% and 104.48% and the inhibition at 10 µM [23] was 11%. The “Delta (one dose mean graph)” value [24] was 23.75%, the “Range (one dose mean graph)” value [24] was 61.62% and the “Mean Growth Percent” value ([24]; mean over panel) was 102.55%.
